Consider 14 molecules from patent US11053476B2, “Generation of cancer stem cells and use thereof” (EXOSTEM BIOTEC LTD., priority 2016, dated 2021).

The test system of the first test is CSCs generated from differentiated cancer cells. Nature of the test: Self-renewal of CSCs (secondary tumorspheres) generated from differentiated cancer cells, factor added to basic protocol. Type of test: cell-based. As to conditions: added to second incubation; data not shown. As for the experimental part: (§1) In order to generate CSCs in vitro, both primary differentiated cancer cells (primary glioma cells) as well as cells from a cancer cell line (U87 cells) were obtained. Glioma cells and U87 cells were trypsinized, and washed three times with medium +10% FCS. The cells were then resuspended in medium that was brought to a pH of 6.0 and were placed on a rotator and incubated for 45-90 minutes. The cells were then incubated in medium supplemented with EGF and FGF. The cells were optionally kept in mild hypoxic conditions (2-3% oxygen) during this second incubation and were then plated on bacterial plates.
(§2) Tumorspheres formed on these plates within one week and were removed from the cells that had attached to the dish. The tumorspheres were disaggregated and the cells were re-plated at limiting dilution to generate secondary spheroids. The secondary tumorspheres were then characterized for CSC specific markers, the ability to self-renew and the ability to generate tumors that recapitulate the parental tumors.
(§3) Knowing that the basic protocol for generating CSCs (acid, EGF/FGF and two rounds of sphere generation) was successful; several modifications to the protocol were examined. […] Second, a wide range of factors were found, that when supplemented to the EGF and FGF containing media, increased the efficacy of the protocol, either by increasing the number of CSCs produced or by increasing their stemness.
Take `CCCC(CCC)C(=O)O` [Valporic acid]: the “efficacy in enhancing dedifferentiation” value was “effective”.
Turning to “insulin: insulin, added to the second incubation”, the “efficacy in enhancing dedifferentiation” value is given as “effective”.

The test is the same for the next values; noted with them: small molecule added to second incubation; FIG. 6A.
With `N[C@@H]1C[C@H]1c1ccccc1` (racemic) [tranylcypromine], the “effect on rate of self-renewal” value is “increase the rate of self-renewal”.
The same measure, in the same setting: then `Nc1nccc2c1ncn2[C@@H]1C=C(CO)[C@@H](O)[C@H]1O` [3-deazaneplanocin A], with “increase the rate of self-renewal”; and `O=C(O)CCCc1ccccc1` [4-phenylbutyrate], with “increase the rate of self-renewal”; and `Nc1ncn([C@H]2C[C@H](O)[C@@H](CO)O2)c(=O)n1` [5-aza-2′-deoxycytidine], with “increase the rate of self-renewal”.
Same read-out and setting: then `Cc1c[nH]c(-c2cnc(NCCNc3ccc(C#N)cn3)nc2-c2ccc(Cl)cc2Cl)n1` [CHIR99021], with “increase the rate of self-renewal”; and `CCCCCCCCCCCCCC=CC(O)C(CO)NC(=O)CCCCC` (stereo not shown) [Ceramide C6], with “increase the rate of self-renewal”.
The same measure, in the same setting: then `CCCCCCCCCCCCCC(=O)O[C@@H]1[C@@H](C)[C@@]2(O)[C@@H](C=C(CO)C[C@]3(O)C(=O)C(C)=C[C@@H]23)[C@@H]2C(C)(C)[C@]12OC(C)=O` [PMA, phorbol 12-myristate 13-acetate, reference compound], with “increase the rate of self-renewal”; and `C[C@@H](N)[C@H]1CC[C@H](C(=O)Nc2ccncc2)CC1` [Y-27632], with “increase the rate of self-renewal”.

Another test deals with Sox2. Nature of the test: Sox2 expression in generated CSCs, factor added to basic protocol. Type of test: cell-based. To be noted: PKC activation; FIG. 6B. How it is done:
as §1, §2, §3
Regarding `CCCCCCCCCCCCCC(=O)O[C@@H]1[C@@H](C)[C@@]2(O)[C@@H](C=C(CO)C[C@]3(O)C(=O)C(C)=C[C@@H]23)[C@@H]2C(C)(C)[C@]12OC(C)=O` [PMA, phorbol 12-myristate 13-acetate, reference compound], the “effect on Sox2 expression” value is reported as “increase Sox2 expression”.
Regarding “PKC alpha: protein kinase C alpha; activators or overexpression”, the “effect on Sox2 expression” value is listed as “increase Sox2 expression” and the “effectiveness on Sox2 expression compared with PMA” value is listed as “more effective that PMA”.

A further test has as its system differentiated cancer cells. Description: Efficacy and penetrance of dedifferentiation with transcription and secreted factors. To be noted: expression in the cells or in their media during second incubation or tumorsphere formation. The format is cell-based. As for the experimental part: as §1, §2
Lastly, several transcription factors and secreted factors that are known to enhance stemness or cancer progression were introduced into the differentiated cells during the second incubation or during tumorsphere formation.
Turning to “LIF: transcription or secreted factor expressed in the cells or in their media”, the “effect on dedifferentiation brought about by the standard protocol” value was “increase the efficacy and penetrance of the dedifferentiation”.
Still for that read-out and setting: then “NANOG: transcription or secreted factor expressed in the cells or in their media”, with “increase the efficacy and penetrance of the dedifferentiation”; and “STAT3: transcription or secreted factor expressed in the cells or in their media”, with “increase the efficacy and penetrance of the dedifferentiation”.
